Assay [1] relates to PC cell lines (LNCap, 22Rv1, DU145, PC3). In words: Co-cultures of PC cell lines with NK cells (1:1), immune-mediated PC killing. It counts as cell-based. The conditions noted are these: for immune-mediated PC killing effect: Example 2, PC with NK-92 cells and patient-derived NK cells, within 24 hrs. The protocol:
Prostate cancer cell lines were dyed with the blue CMAC live-cell dye (Thermo Fisher Scientific #C2110, per manufacturer protocol). Blue-fluorescent cancer cells were plated at a density of 10,000 cells per well of a 48-well plate. NK-92 cells were dyed with green CMFDA (Cayman Chemical Company #19583, per manufacturer protocol). Green-fluorescent NK-92 cells were added to the blue-fluorescent cancer cells at a 1:1 ratio. Enzalutamide (10 μM), darolutamide (20 μM), and 1 μM ethidium homodimer (EthD-1) were added at the same time as the NK cells. After 24 hours of co-culture, images of live cancer cells, live NK cells, and dead cells were taken using a fluorescent microscope. The co-culture experiments were run with internal control conditions and as a single treatment. Normalization was performed after analysis to take baseline death conditions into each experiment run. To optimize the high output of these experiments, a subset of co-cultures were performed using the ImageXpress® Micro Confocal High-Content Imaging. This analysis maintained the experiment conditions, drug concentrations, and the dyeing process. When GFP-labeled tumor cells were used for culture assays, they were added in a 1:1 ratio. Cell adhered over 24 h, and when patient-derived NK cells were added, a control well was trypsinized, and cells resuspended and counted to adjust a 1:1 ratio before treatment addition. The experiments with blocking antibodies were performed using the ImageXpress system. TRAIL blocking ab was purchased from Santa Cruz TRAIL Antibody (RIK-2): sc-56246, and IFN gamma blocking Monoclonal Antibody (NIB42, #6-7318-81) was purchased from Thermo Fisher. The blocking mAb was added when NK cells were combined with tumor cells.
Live cancer cells, NK cells, and dead cells were quantified using FIJI (Fiji Is Just ImageJ) software for images derived from fluorescent co-culture images. Images from the ImageXpress system were quantified using MetaXpress cytoplasmic/nuclear staining software. The percent of dead tumor cells in each well was quantified, and this percentage was normalized by subtracting baseline death from cancer cell-only wells, NK cell-only wells, or both. A two-way ANOVA was used to calculate the interaction effect between drug treatment and NK cells.
In groups with a significant interaction effect, data was further normalized in the cancer cell+NK cells+drug treatment well by subtracting out death in the cancer cell+drug well. A one-way ANOVA and multiple comparison analysis with subsequent t-tests were used to calculate the statistical significance of the difference between this group and the cancer cell+NK cell well. GraphPad Prism Version 9.5.1 was used for statistical analysis.
(§1) We conducted cell viability assays to investigate the effect of Enza and Daro on PC cells (LNCap, 22Rv1 [ARv7 mutation], DU145, PC3 [AR-]) and NK-92 cells. We performed co-culture experiments with PC and NK cells in a 1:1 ratio and analyzed immune cell-mediated tumor cell killing (ImageXpress Confocal HT). Cytokine profiling (Luminex 200) of culture supernatants was performed following treatment with ARi−/+ and anti-IFN-γ antibodies. In vivo studies were performed in NCr Nude mice harboring subcutaneous PC tumors treated orally with Daro (50 mg/kg/bid) and Enza (30 mg/kg/bid) for 4 weeks.
We performed ATP-based (CellTiter-Glo) viability assays to investigate the effect of Enzalutamide and Darolutamide on PC cell lines (LNCap, 22Rv1 [ARv7 mutation], DU145, PC3 [AR-]) and NK-92 cells. We performed co-culture experiments with PC and NK cells at a 1:1 ratio throughout 4 h, 6 h, 12 h, 24 h, and 48 h periods. We analyzed immune cell-mediated tumor cell killing in the presence of Enza and Darolutamide (ImageXpress Confocal HT). Western Blotting was performed to evaluate different protein expression levels and their regulation related to sensitivity in mediating immune-mediated cell killing (apoptotic family). […]

For another assay, the system named is NK-92 cells. Description: Flow cytometry of NK-92 activation markers CD69 and CD137. It counts as cell-based. As to conditions: NK-92 monoculture, 48 h. The protocol:
The surface expression of the NK cell activation markers CD69 and CD137 were also evaluated following the treatment of NK cell monocultures with ARi (FIG. 13D-E).
(§2) PCa cells were plated at a density of 3×10^5 cells per well of a 6-well plate and adhered overnight. […] After treatment, cells were trypsinized, stained, and incubated (Cell Staining Buffer SouthernBiotech #0225-01S) with the corresponding antibody for 45-60 min at 4° C. Viability dye was added with each run. NK-92 cells and patient-derived cells were stained similarly. Markers used for experiments included: Thermofisher HLA-E Monoclonal Antibody (3D12HLA-E), Alexa Fluor™ 488, eBioscience™, CD274 (PD-L1, B7-H1) Monoclonal Antibody (MIH1), eFluor™ 450, eBioscience™, Cell Signaling PD-1 (D4W2J) XPR Rabbit mAb, SYTOX™ Orange Dead Cell Stain, for flow cytometry, BioLegend APC anti-human CD159a (NKG2A) Antibody #375108, BioLegend APC anti-human CD69 Antibody #310909, BioLegend Alexa Fluor® 647 anti-human CD137 (4-1BB) [4B4-1] #309823. For staining of the patient-derived PBMCs and subsequent NK cell characterization, the following antibodies were used: BioLegend Anti-Perforin Mouse Monoclonal Antibody (PerCP Cy5.50, clone: dG9) #308113, BioLegend Anti-Granzyme B Mouse Monoclonal Antibody (FITC, clone: GB11) #515403, BioLegend Anti-CD56 Mouse Monoclonal Antibody (Alexa Fluor® 700, clone: 5.1H1) #362521, and BioLegend (PE anti-human CD45 Antibody) #304008.
In general terms: In flow cytometry, cells or beads pass a laser one at a time.

The subject of another assay is LNCaP cells. Description: Flow cytometry of HLA-E / PD-L1 surface expression on LNCaP. It counts as cell-based. The conditions noted are these: 48 h; for HLA-E surface expression / PD-L1 expression: Example 2, LNCaP; for HLA-E surface expression, mean fluorescence intensity (MFI): LNCaP, enza 15 μM, daro 20 μM. The method, then:
The effect of ARi on the NKG2A ligand, HLA-E, was investigated by flow cytometry on PCa cells treated with enza and daro.
as §2
The effect of androgen pathway inhibitors in the expression of HLA-E, a negative and key negative modulator of NK cell function, was also performed using Flow Cytometry. PD-L1 expression levels were also measured. In advance, The NK cell immune checkpoint inhibitor monalizumab (targeting NKG2A and its ligand, HLA-E) was also combined with ARi.

Assay [2] concerns PC tumors (PC3, 22Rv1 xenograft). Description: NK cell infiltration in subcutaneous PC tumors of treated mice. It counts as in vivo, NCr Nude mice. As to conditions: oral, Daro 50 mg/kg/bid, Enza 30 mg/kg/bid, 4 weeks. The protocol: as §1
In vivo studies were performed in NCr Nude mice harboring subcutaneous PC tumors treated orally with Daro (50 mg/kg/bid) and Enza (30 mg/kg/bid) for 4 weeks.

Where [3] appears, read: Example 1, PC + NK-92, within 24 hours.
[4] abbreviates: Example 2, PC + NK-92, within 24 hours, blocking mAbs 10 ug/ml.

As to `CNC(=O)c1ccc(N2C(=S)N(c3ccc(C#N)c(C(F)(F)F)c3)C(=O)C2(C)C)cc1F` [enzalutamide], the “immune-mediated PC killing” value in assay [1] (setting [3]) amounted to 36%. Also, the “immune-mediated PC killing” value in assay [1] (setting [4]) worked out at 40%. Besides, in assay [1], the “immune-mediated PC killing effect” value amounted to 40%. In the assay with NK-92 cells, the “expression of CD69” value was 87.4% and the “expression of CD137” value is reported as 61.54%. In the assay on LNCaP cells, the HLA-E surface expression was determined as 1.1%; the PD-L1 expression result is listed as “increase”; the “HLA-E surface expression, mean fluorescence intensity (MFI)” value is 37.38±1.7×10^3. Besides, the “NK cell infiltration in the tumor microenvironment” value in assay [2] is listed as “increased”.

Consider `CC(O)c1cc(C(=O)N[C@@H](C)Cn2ccc(-c3ccc(C#N)c(Cl)c3)n2)n[nH]1` (stereo partly drawn) [darolutamide], for which the “immune-mediated PC killing” value in assay [1] (setting [3]) came to 41%. For the same compound, the “immune-mediated PC killing” value in assay [1] (setting [4]) is listed as 36%. Also, in assay [1], the “immune-mediated PC killing effect” value worked out at 36%. In addition, in the assay on NK-92 cells, the “expression of CD69” value was 88.63% and the “expression of CD137” value was 64.87%. Further, in the assay on LNCaP cells, the HLA-E surface expression was 0.8%; the PD-L1 expression result is reported as “increase”; the “HLA-E surface expression, mean fluorescence intensity (MFI)” value is given as 39.47±3.39×10^3. Besides, the “NK cell infiltration in the tumor microenvironment” value in assay [2] is on record as “increased”.

Values taken from patent US20240309090A1, “MODULATION OF ANDROGEN SIGNALING TO INNATE IMMUNE KILLING OF PROSTATE CANCER” (Brown University, priority 2023, published 2024).
